pIC50: −log10 of the molar value.
Experiments:
[1] = biological target: vitamin K epoxide reductase (Homo sapiens, UniProt Q9BQB6); conditions: cited from earlier work
[2] = test system: PanIN and PDA tumor growth in KIC mice; experiment: Two week in vivo assay in Rgs16::GFP;KIC mice, Rgs16::GFP intensity at P29; design: species or system mouse; conditions: for effect on GFP levels when combined with GA: drug dissolved in 30% Cyclodextrin
Text: Fluorescent microscopy and GFP quantification. Pancreatic expression of Rgs16::GFP in GFP-PDA mice was quantified using a Zeiss Lumar microscope. Images were captured using a single-channel camera (Hamamatsu) in 1344×1024 resolution with 1 sec exposure under 48× magnification with 1×1 binning, analog gain=10, and analog offset=2 settings. Pancreatic fields representing the tumor burden (3-4 fields for P15 pups and 5 or more for pups from P23 onwards) of the pancreas were imaged covering up to 50% of the organ surface area. All images were saved in gray-scale 16-bit tiff format. Images were quantified using NIH ImageJ software with background subtraction with a radius of 50 pixels. A variable and tight threshold was set to eliminate residual background. Intensities of all particles with size ≥5 pixels were summed to obtain the total light intensity per image.
Drug dosages. GFP-PDA mice were injected intraperitoneally with gemcitabine (Eli Lilly; Indianapolis, Ind., USA) (12.5 mg/kg/day given 3 days/week, dissolved in PBS), Abraxane (Cellgene; Summit, N.J., USA) (5 mg/kg/day given 2 days/week, diluted in 2% saline solution), BGB324 (BerGenBio, Bergen, Norway) (5 mg/kg/day given 5 days/week, dissolved in a mix of DMSO:ethanol:Kolliphor EL:water with 4:4:8:84 v/v ratio), and warfarin (0.2 mg/kg/day given 5 days/week, dissolved in PBS) according to injection schedules specified below. These doses were validated in prior mouse studies (Dineen et al., 2010; Kutluk Cenik et al., 2013; Ostapoff et al., 2013; Aguilera et al., 2014; Ostapoff et al., 2014). […] To verify tumor progression remains constant over the duration of these experiments, assays of untreated mice were interspersed with drug-treated cohorts, and warfarin-treated pups were the final cohort the inventors tested. Gemcitabine, Abraxane and warfarin were purchased from the UT Southwestern clinical pharmacy; BGB324 was a gift from BerGenBio.
Statistical analysis of GFP expression. GFP values were converted to log10 scale prior to statistical analysis. Graphs and their statistical comparisons were done using Graphpad Prism software with unpaired and two-tailed Student's t test. Significance between groups was indicated as ns (not significant); *p<0.05; **p<0.01; ***p<0.001; ****p<0.0001. Error bars in all the graphs are standard error mean (SEM). See FIGS. 7-8 for additional statistical analysis.
The therapeutic screening strategy was to treat KIC pups between P15-P28 (when PanIN and PDA are in rapid expansion) with anticancer drugs, sacrifice mice at P29, and capture Rgs16::GFP intensity with a dissection fluorescence microscope. Images of the five brightest non-overlapping fields of Rgs16::GFP expression were then collected, representing the regions of greatest tumor burden (FIGS. 17A-C).

primary PDA cells = experiment: Rgs16::GFP PDA primary cell culture, live cell counts after 24 hr drug treatment; format: cell-based, mouse; conditions: for effect on cell viability and proliferation: 24 hr, gemcitabine 10 μM, BGB324 or warfarin 1 or 10 μM; for recovery of cell growth after drug removal: passages without drug after 24 hr treatment
Protocol: Cell proliferation counts of primary PDA culture after 24 hr treatment with (FIG. 20A) gemcitabine (purple round); (FIG. 20B) BGB324 (green round); (FIG. 20C) warfarin (blue round); or (FIG. 20D) BGB324 with warfarin (green or blue round) at the indicated concentrations. PDA primary cells were plated at equal density (black open circle) at the start. Next day, cells were treated with drugs (D, red font) for 24 hr (red line). Approximate cell number at the start of drug treatment was obtained from another plate with equal density (red open circle). At the end of treatment, cells in each group were counted and subsequent passages started with cells plated at equal density (grey asterisk). Drug treated groups were allowed to grow without drug selection thereafter. Control cells (Ctrl) on separate plates were grown without drug and counted at the end of each passage (black open circle). PDA live cell numbers were obtained via counts using a hemocytometer after 2% Trypan blue staining to distinguish between living and dead cells under an inverted microscope with 10× objective. Statistical significances are based on comparison of drug-treated cell counts to Ctrl. […] Statistical analyses were obtained by comparing counts of drug-treated cells to Ctrl via unpaired and two-tailed Student's t-test. *, p<0.05; **, p<0.01; ***, p<0.001; ****, p<0.0001. Asterisks match the color of the comparison group.
Rgs16::GFP PDA primary cell culture. Primary Rgs16::GFP PDA cells were harvested from 6-week-old KIC mice. Cells were grown in 25 mM Glucose DMEM (HyClone) with 10% FBS (Serum Source International), penicillin and streptomycin (Life Technologies) on rat tail collagen typel (BD Biosciences) coated plates (0.5 μg/cm^2) in a humidified incubator at 37° C. and 5% CO2. Cells reaching confluency were washed twice with PBS (HyClone) and lifted with 0.05% Trypsin-EDTA (HyClone) treatment up to 10 min in the incubator. For drug tests in FIGS. 20A-D, primary PDA cells were incubated with gemcitabine (10 μM dissolved in PBS), warfarin (1 μM or 10 μM dissolved in water), BGB324 (1 μM or 10 μM dissolved in DMSO) or warfarin and BGB324 together for 24 hrs in 37° C. incubator. PDA live cell numbers were obtained via counts using a hemocytometer following 2% trypan blue staining to distinguish dead cells under an inverted microscope.

Axl = biological target: T1, Axl (Homo sapiens, UniProt P30530); experiment: Phosphorylated Axl in Panc-1 cells (western blot, immunofluorescence); format: cell-based; conditions: overnight, 1% serum, 2 μM
T1 construct: Lysates were probed for total Axl (tAxl) and phosphorylated Axl (pAxl); endogenous in cells; host or cells: Panc-1
Protocol: (FIG. 24A) HEK293 cells engineered to stably express recombinant Gas6 were grown in the presence of Vitamin K or Vitamin K+warfarin. Gas6 levels and γ-carboxylation were assayed by immunoblotting conditioned media. Conditioned media from untransfected HEK293 cells was used as a negative control. (FIG. 24B) Panc1 cells were grown overnight in media with 1% serum with no additions (NT), warfarin (2 μM) or BGB324 (2 μM). Lysates were probed for total Axl (tAxl) and phosphorylated Axl (pAxl). (FIG. 24C) Panc1 cells were grown in the presence of control media, Vitamin K, warfarin or warfarin+Vitamin K. The level of phosphorylated Axl (pAXL, red) was determined by immunofluorescence. (FIG. 24D) Panc1 cells were grown overnight in media with 1% serum with no additions (control), warfarin (1 μM), Gas6 (1.3 nM) or Gas6+warfarin. Lysates were probed for phosphorylated Akt (pAkt) and actin. (FIG. 24E) Lysates from Panc1 tumors harvested from mice treated with control or warfarin were probed for expression of tAxl, pAxl, actin, pAKT, tAKT, and cleaved Parp. (FIG. 24F) The effect of warfarin on cell migration was assessed by a ‘scratch’ assay. Monolayers of the indicted cells were wounded with a pipet tip. The cells were incubated in media containing 2% serum+/−warfarin (2 μM) or media containing 2% serum+Gas6 (1.3 nM)+/−warfarin.

advanced ovarian cancer = conditions: gemcitabine with carboplatin; cited from earlier work
Pan02 = experiment: MTS cell growth assay, gemcitabine +/- warfarin; format: cell-based, murine; conditions: Mus musculus, Pan02, 120 h, gemcitabine alone, 5 days, read-out: Gemcitabine (nmol/L) median IC50
Protocol: (§1) Cytotoxicity and augmentation of chemotherapy response was measured by MTS assays conducted in 96-well plates; cells were plated on day 0 and drug was added on day 1 in 4-fold dilutions. Maximum concentration of 2,000 nmol/L for gemcitabine was used with or without the addition of a constant concentration of 2 μM warfarin or 1.1 μM 10C9. Relative cell number was determined by adding MTS (Promega; final concentration […]), incubating for 1 to 3 hours at 37° C., and reading absorbance. Drug sensitivity curves and IC50s were calculated using in-house software.

Panc1 = experiment: MTS cell growth assay, gemcitabine +/- warfarin; format: cell-based, human; conditions: Homo sapiens, PANC-1, 120 h; gemcitabine alone; 5 days, MTS; read-out: Gemcitabine (nmol/L) median IC50
Protocol: as §1

ASPC = experiment: MTS cell growth assay, gemcitabine +/- warfarin; format: cell-based, human; conditions: Homo sapiens, 120 h; gemcitabine alone; 5 days, MTS; read-out: Gemcitabine (nmol/L) median IC50
Protocol: as §1

MiaPaca = experiment: MTS cell growth assay, gemcitabine +/- warfarin; format: cell-based; conditions: Homo sapiens, MIA PaCa-2, 120 h, gemcitabine alone, 5 days, read-out: Gemcitabine (nmol/L) median IC50
Protocol: as §1

MiaShAxl = experiment: MTS cell growth assay, gemcitabine +/- warfarin; format: cell-based; conditions: Homo sapiens, 120 h, gemcitabine alone, 5 days, read-out: Gemcitabine (nmol/L) median IC50
Protocol: as §1

Capan = experiment: MTS cell growth assay, gemcitabine +/- warfarin; format: cell-based; conditions: Homo sapiens, 120 h, gemcitabine alone, 5 days, read-out: Gemcitabine (nmol/L) median IC50
Protocol: as §1

[3] = Body weight of KIC weanling mice under chemotherapy; format: in vivo, mouse; conditions: P29
Text: FIG. 19. […] Comparison of body weight of female (round) and male (square) non-KIC control (Ctrl, grey), and KIC untreated (Unt, black) or chemotherapy-treated KIC groups are shown. […] Significances are based on comparison of any KIC group to Ctrl via unpaired and two-tailed Student's t-test. ****, p<0.0001.

advanced PDA = conditions: patients; cited from earlier work

Chain of vitamin K epoxide reductase (Q9BQB6 whole entry): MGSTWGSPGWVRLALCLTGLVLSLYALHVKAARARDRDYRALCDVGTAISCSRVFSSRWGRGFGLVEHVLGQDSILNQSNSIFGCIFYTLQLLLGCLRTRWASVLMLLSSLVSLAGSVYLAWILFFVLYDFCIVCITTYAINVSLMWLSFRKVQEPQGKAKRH
T1 sequence (P30530 26-894): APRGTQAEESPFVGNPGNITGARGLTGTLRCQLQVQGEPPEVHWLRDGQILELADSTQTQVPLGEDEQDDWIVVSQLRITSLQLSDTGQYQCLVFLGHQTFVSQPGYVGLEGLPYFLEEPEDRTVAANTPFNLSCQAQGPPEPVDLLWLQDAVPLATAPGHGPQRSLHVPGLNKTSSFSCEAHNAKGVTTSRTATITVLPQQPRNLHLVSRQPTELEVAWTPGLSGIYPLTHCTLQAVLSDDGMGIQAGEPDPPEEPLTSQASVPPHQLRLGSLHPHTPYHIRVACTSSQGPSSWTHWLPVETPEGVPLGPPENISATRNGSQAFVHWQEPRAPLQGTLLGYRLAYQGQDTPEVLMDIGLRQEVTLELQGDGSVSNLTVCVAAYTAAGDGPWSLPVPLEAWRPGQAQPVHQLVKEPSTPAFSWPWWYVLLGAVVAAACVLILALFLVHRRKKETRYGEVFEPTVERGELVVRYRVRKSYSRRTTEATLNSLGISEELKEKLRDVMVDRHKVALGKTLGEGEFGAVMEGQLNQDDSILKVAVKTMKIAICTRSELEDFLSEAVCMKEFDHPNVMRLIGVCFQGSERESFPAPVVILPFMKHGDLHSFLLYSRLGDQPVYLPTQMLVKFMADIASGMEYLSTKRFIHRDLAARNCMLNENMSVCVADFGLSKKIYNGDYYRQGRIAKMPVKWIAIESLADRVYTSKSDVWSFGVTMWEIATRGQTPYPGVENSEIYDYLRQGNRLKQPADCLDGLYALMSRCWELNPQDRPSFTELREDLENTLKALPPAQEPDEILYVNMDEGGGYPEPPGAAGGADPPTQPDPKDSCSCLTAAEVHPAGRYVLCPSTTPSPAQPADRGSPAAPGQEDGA

CC(=O)C[C@@H](c1ccccc1)c1c(O)c2ccccc2oc1=O [S-warfarin]
potency in producing an anticoagulant response relative to the R-isomer [1]: 2-5 times

Cc1c(CN2CCN(C(=O)[C@H](C)O)CC2)sc2c(N3CCOCC3)nc(-c3cnc(N)nc3)nc12 [GDC980]
effect on GFP levels when combined with GA [2]: did not exert an effect

Nc1nc(Nc2ccc3c(c2)CC[C@@H](N2CCCC2)CC3)nn1-c1cc2c(nn1)-c1ccccc1CCC2 [BGB324]
effect on GFP levels when combined with GA [2]: did not exert an effect
effect on cell viability and proliferation (primary PDA cells): cytostatic
recovery of cell growth after drug removal (primary PDA cells): within four passages
phosphorylation of Axl (pAxl) (Axl): inhibited phosphorylation of Axl

Nc1ccn([C@@H]2O[C@H](CO)[C@@H](O)C2(F)F)c(=O)n1 [Gemcitabine]
effect on PanIN lesions and PDA tumor growth (Rgs16::GFP expression) ([2]; KIC mice treated P15-P28, i.p., sacrificed P29): reduction of GFP expression
effect on cell viability and proliferation (primary PDA cells): killed cells
recovery of cell growth after drug removal (primary PDA cells): did not recover
neutropenia (most commonly reported adverse effect) (advanced ovarian cancer): 90 % of patients
pIC50 (Pan02): 7.12
pIC50 (Panc1): 7.77
pIC50 (ASPC): 7.80
pIC50 (MiaPaca): 7.84
pIC50 (MiaShAxl): 7.68
pIC50 (Capan): 8.16
body weight gain / growth of weanling mice [3]: retards body weight gain
survival (advanced PDA): 6.7 months

Source: patent US9986723B2, “Screen and use of therapeutics for pancreatic ductal adenocarcinoma” (The Board of Regents of the University of Texas System, priority 2014, dated 2018)
